Assay results as given in patent publication US20160324981A1, “LIVER X RECEPTOR AGONISTS AND USES THEREOF” (The California Institute for Biomedical Research, priority 2015, published 2016).

T1: LXR-α (Homo sapiens, UniProt Q13133)
T1 construct: purchased Life Technologies PV4655
T1 sequence (Q13133 209-447 limits assumed): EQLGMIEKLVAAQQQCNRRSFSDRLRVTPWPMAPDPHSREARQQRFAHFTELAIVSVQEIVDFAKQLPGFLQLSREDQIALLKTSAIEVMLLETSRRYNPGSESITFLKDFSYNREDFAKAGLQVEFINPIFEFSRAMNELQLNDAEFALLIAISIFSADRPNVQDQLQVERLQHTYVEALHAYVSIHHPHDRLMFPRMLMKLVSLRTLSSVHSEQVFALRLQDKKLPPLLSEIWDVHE

T2: LXR-β (Homo sapiens, UniProt P55055)
T2 construct: purchased Life Technologies PV4658
T2 sequence (P55055 222-460 limits assumed): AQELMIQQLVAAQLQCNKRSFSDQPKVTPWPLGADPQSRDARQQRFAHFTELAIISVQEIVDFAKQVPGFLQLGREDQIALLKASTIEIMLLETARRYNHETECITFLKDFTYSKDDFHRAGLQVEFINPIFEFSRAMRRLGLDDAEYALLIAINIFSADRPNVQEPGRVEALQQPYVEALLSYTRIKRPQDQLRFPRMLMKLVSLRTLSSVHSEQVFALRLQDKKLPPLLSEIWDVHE

B1: anti-CD11a A122pAcF IgG conjugated to Alexa Fluor 488 (anti-CD11a IgGX-AF488) (antibody, V domains shown)
VH: EVQLVESGGGLVQPGGSLRLSCAASGYSFTGHWMNWVRQAPGKGLEWVGMIHPSDSETRYNQKFKDRFTISVDKSKNTLYLQMNSLRAEDTAVYYCARGIYFYGTTYFDYWGQGTLVTVSS
VL: DIQMTQSPSSLSASVGDRVTITCRASKTISKYLAWYQQKPGKAPKLLIYSGSTLQSGVPSRFSGSGSGTDFTLTISSLQPEDFATYYCQQHNEYPLTFGQGTKVEIKR
modifications: para-acetylphenylalanine (pAcF) at position A122 (the X in SEQ ID NO 10), oxime-linked to aminooxy-Alexa Fluor 488
notes: Humanized monoclonal anti-CD11a IgG made in CHO cells; The unnatural amino acid pAcF sits at heavy chain position A122; also called anti-CD11a pAcF IgGX

How the values were obtained:
LXR-α = target: T1, LXR-α; assay: LanthaScreen TR-FRET LXR alpha Coactivator binding assay; settings: EC50 (AC50) from fitted curve, read-out: binding affinity for LXR-α
LXR-β = target: T2, LXR-β; assay: LanthaScreen TR-FRET LXR beta Coactivator binding assay; settings: EC50 (AC50) from fitted curve, read-out: binding affinity for LXR-β
[1] = test system: LXR-α transcriptional response element; assay: In vitro LXR transactivation (luciferase reporter) assay in THP-1 cells; assay type: cell-based; settings: Homo sapiens, 24 hours, read-out: EC50 (LXR agonist activity)
Description: (§1) Next, the in vitro activity of the anti-CD11a IgGX-CatB-LXR agonist was evaluated using an LXR-driven luciferase stably incorporated into THP-1 and HepG2 cells. This vector encodes the firefly luciferase reporter gene under the control of a CMV promoter and tandem repeats of the LXR-α transcriptional response element. […] Cells were then treated with ONE-Glo and luminescence was read on an Envision plate reader.
(§2) THP-1 cells and HepG2 cells (ATCC) were seeded at 0.6×10^6 cells/well in Opti-MEM media in a 6-well plate and allowed to incubate overnight at 37° C. Afterwards, 50 μL of Cignal lenti LXR-α luciferase reporter (cat no: CLS-7041L, Qiagen) was added to the wells with gentle mixing. After 48 h, the media was changed to completed growth media that was supplemented with 1 μg/mL puromycin. After 24 h, positively transfected cells were cultured for one week in puromycin-containing media.

[2] = test system: LXR-α transcriptional response element; assay: In vitro LXR transactivation (luciferase reporter) assay in HepG2 cells; assay type: cell-based; settings: 24 hours, presence or absence of 10% human AB serum
Description: as §1, §2

[3] = target: T3, CD11a (alpha-chain component of lymphocyte function-associated antigen 1, LFA-1) on human THP-1 … (human, UniProt P20701 26-1170); assay: flow cytometry on THP-1 cells in the presence of Fc block
T3 construct: whole, on cells; Endogenous on THP-1 cells, where it stands with its partner chain in LFA-1; also called LFA-1 alpha chain
Description: Cells were incubated either with 2 nM of the dye-conjugated antibodies or with increasing concentrations of antibody (0-50 nM, right) for 1 h at 4° C. in the presence of Fc block (Human Fc block, BD Biosciences).
Because monocytes/macrophages have Fcγ receptors, the binding in the presence of an Fc blocking reagent was also examined (BD biosciences). […] Furthermore, binding of anti-Her2 to THP-1 cells at different concentrations, with or without Fc block treatment was performed (FIG. 9B).

T3 sequence (P20701 26-1170): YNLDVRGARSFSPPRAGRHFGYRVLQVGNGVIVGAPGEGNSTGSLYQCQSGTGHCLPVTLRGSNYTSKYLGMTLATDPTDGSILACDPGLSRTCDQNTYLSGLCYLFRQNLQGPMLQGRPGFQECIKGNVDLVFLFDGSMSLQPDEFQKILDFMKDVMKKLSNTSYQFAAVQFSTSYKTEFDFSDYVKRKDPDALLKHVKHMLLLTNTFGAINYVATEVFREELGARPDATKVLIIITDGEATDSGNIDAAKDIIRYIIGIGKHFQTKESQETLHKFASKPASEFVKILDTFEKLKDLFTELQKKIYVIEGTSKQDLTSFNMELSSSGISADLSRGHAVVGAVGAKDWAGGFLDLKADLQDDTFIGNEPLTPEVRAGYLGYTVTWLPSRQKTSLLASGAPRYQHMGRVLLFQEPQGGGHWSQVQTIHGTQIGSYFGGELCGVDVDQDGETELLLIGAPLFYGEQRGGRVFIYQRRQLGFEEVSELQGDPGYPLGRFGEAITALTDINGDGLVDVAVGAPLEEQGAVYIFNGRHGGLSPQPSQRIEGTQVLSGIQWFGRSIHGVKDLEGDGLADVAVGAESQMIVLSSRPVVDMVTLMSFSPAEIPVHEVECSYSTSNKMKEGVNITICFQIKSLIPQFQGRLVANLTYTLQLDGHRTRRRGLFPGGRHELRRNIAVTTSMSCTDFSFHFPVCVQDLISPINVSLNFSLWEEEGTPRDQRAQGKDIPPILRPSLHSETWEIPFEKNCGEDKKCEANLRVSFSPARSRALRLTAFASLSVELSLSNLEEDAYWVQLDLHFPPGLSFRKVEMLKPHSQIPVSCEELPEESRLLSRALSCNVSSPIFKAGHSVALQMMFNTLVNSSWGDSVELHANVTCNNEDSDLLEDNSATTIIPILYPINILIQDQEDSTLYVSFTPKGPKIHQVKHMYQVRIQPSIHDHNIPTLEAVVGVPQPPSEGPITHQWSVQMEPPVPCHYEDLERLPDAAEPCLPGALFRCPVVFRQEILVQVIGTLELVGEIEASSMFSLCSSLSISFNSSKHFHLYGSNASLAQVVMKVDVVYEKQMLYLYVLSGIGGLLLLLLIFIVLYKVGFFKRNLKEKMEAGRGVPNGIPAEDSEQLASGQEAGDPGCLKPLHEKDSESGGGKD

Row | Molecule | EC50 (LXR-α) [nM] | EC50 (LXR-β) [nM] | EC50 [1] [nM] | LXR activation in HepG2 cells [2] | Kd [3] [nM]
1 | CCc1cnc2c(C(F)(F)F)cccc2c1-c1cccc(Oc2cccc(S(=O)(=O)N(C)CCN)c2)c1 [compound 3] | 1.5 | 12 | – | – | –
2 | O=C(O)Cc1cccc(OCCCN(Cc2cccc(C(F)(F)F)c2Cl)CC(c2ccccc2)c2ccccc2)c1 [compound 1, GW3965, reference compound] | 1.1 | 0.5 | – | – | –
3 | O=S(=O)(c1ccccc1)N(CC(F)(F)F)c1ccc(C(O)(C(F)(F)F)C(F)(F)F)cc1 [compound 2, T0901317] | – | – | 79 ± 1.1 | equipotent in these cells relative to THP-1 | –
4 | B1 | – | – | – | – | ~0.5
